The target of assay [1] is CDK4/CyclinD1 (Homo sapiens, UniProt P11802). The experiment in a line: CDK4/CyclinD1 Flashplate assay, 96-well format, biotinylated-Rb peptide substrate. It is filed as biochemical. The method, boiled down:
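Biotinylated Rb peptide bound to streptavidin Flashplate; CDK4/CyclinD1 (70 ng/well) preincubated 30 min on ice with compound at 10, 3, 1, 0.3 and 0.1 μM final. Reaction with 1 μM cold ATP plus 33P-ATP for 45 min at RT; incorporated 33P counted, duplicates.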

Assay [2] addresses CDK2/CyclinE (Homo sapiens, UniProt P24941). The assay can be described thus: CDK2/CyclinE Flashplate assay, 96-well format, biotinylated-Rb peptide substrate. It is filed as biochemical. As to the method:
This is a CDK2/CyclinE kinase assay in a 96-well Streptavidin-coated Flashplate with a biotinylated-Rb peptide substrate.
Each point is tested in duplicate
Biotinylated-Rb: Biotin-[…]-OH
• 1. Prepare substrate: 1 mg/ml solution made fresh in PBS. • 2. Add 4 μg per well to the Flashplate. • 3. Incubate for 2 hours at RT. • 4. From 10 mM inhibitor stocks in DMSO, make 1 mM, 300 μM, 100 μM, 30 μM and 10 μM series of dilution in DMSO. • 5. Was the Flashplate 3 times with 300 μl PBS to remove unbound peptide substrate. • 6. Add the CDK2/CyclinE kinase: 200 ng per well, in a volume of 90 μl in kinase buffer (except for “no enzyme” control wells). • 7. Add 1 μl per well of inhibitor to test 10 μM, 3 μM, 1 μM, 0.3 μM and 0.1 μM in final concentration per 100 μl in each well. • 8. Shake gently the Flashplate 1 minute. • 9. Incubate 30 minutes on wet ice. • 10. Initiate the reaction with 10 μl kinase buffer containing 1 μM final cold ATP and 1 μCi final ^33P-ATP per well. • 11. Shake gently the Flashplate 1 minute. • 12. Incubate 45 minutes at RT (no shaking). • 13. Wash the Flashplate 3 times with 300 μl PBS
14. Count to detect the incorporation of ^33P-ATP by the kinase to the Rb phosphorylation site.

Chain of CDK4/CyclinD1 (P11802 whole entry, species assumed): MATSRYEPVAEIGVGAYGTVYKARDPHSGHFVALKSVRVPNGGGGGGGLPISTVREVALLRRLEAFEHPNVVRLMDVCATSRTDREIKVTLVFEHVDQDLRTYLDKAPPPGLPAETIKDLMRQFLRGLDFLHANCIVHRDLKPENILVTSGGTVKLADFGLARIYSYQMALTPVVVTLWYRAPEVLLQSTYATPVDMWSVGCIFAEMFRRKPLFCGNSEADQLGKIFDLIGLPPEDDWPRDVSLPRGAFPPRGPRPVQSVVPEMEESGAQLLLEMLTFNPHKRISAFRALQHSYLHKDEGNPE
Chain of CDK4/CyclinD1 (P24385 whole entry partner, species assumed): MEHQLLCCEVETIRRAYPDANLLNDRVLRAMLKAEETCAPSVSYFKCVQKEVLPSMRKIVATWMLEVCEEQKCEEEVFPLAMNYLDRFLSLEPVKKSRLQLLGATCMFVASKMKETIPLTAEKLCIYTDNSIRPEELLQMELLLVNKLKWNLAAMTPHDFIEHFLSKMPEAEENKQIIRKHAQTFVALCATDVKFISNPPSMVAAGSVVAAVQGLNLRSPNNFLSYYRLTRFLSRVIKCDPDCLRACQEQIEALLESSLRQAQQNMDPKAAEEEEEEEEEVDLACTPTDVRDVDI

For the molecule `O=C(Nc1cccc(Cl)c1)Nc1nc2cc(OS(=O)(=O)c3ccc(NC4CCCC4)cc3)ccc2[nH]1` [Example 42, 4-Cyclopentylamino-benzenesulfonic acid 2-[3-(3-chloro-phenyl)-ureido]-1H-benzoimidazol-5-yl ester], the inhibition at 10 µM in assay [1] was determined as 84%. Further, the IC50 in assay [2] was 910 nM.
On to `CC(C)CNC(=O)Nc1nc2cc(OS(=O)(=O)c3ccc(NC4CCCC4)cc3)ccc2[nH]1` [Example 43, 4-Cyclopentylamino-benzenesulfonic acid 2-(3-isobutyl-ureido)-1H-benzoimidazol-5-yl ester], for which the IC50 in assay [1] stood at 1900 nM; in assay [2] it was 200 nM.
On the same counts, the results for `CCNC(=O)Nc1nc2cc(OS(=O)(=O)c3ccc(NC4CCCC4)cc3)ccc2[nH]1` [Example 45, 4-Cyclopentylamino-benzenesulfonic acid 2-(3-ethyl-ureido)-1H-benzoimidazol-5-yl ester] are 600 nM and 60 nM.
On the same counts, the results for `O=C(O)CNC(=O)Nc1nc2cc(OS(=O)(=O)c3ccc(NC4CCCC4)cc3)ccc2[nH]1` [Example 46, {3-[5-(4-Cyclopentylamino-benzenesulfonyloxy)-1H-benzoimidazol-2-yl]-ureido}-acetic acid] are 12 nM and 60 nM.
The matching figures for `O=C(NCCS(=O)(=O)O)Nc1nc2cc(OS(=O)(=O)c3ccc(-n4ccnc4)cc3)ccc2[nH]1` [Example 47, 4-Imidazol-1-yl-benzenesulfonic acid 2-[3-(2-sulfo-ethyl)-ureido]-1H-benzoimidazol-5-yl ester]: 800 nM and 160 nM.
As for `COCCNC(=O)Nc1nc2cc(OS(=O)(=O)c3ccc(NC4CCCC4)cc3)ccc2[nH]1` [Example 48, 4-Cyclopentylamino-benzenesulfonic acid 2-[3-(2-methoxy-ethyl)-ureido]-1H-benzoimidazol-5-yl ester], the IC50 is 300 nM in assay [1] and 40 nM in assay [2].
Regarding `CN(C)c1ccc(NC(=O)Nc2nc3cc(OS(=O)(=O)c4ccc(NC5CCCC5)cc4)ccc3[nH]2)cc1` [Example 49, 4-Cyclopentylamino-benzenesulfonic acid 2-[3-(4-dimethylamino-phenyl)-ureido]-1H-benzoimidazol-5-yl ester], the inhibition at 10 µM in assay [1] is 88%. In assay [2], this molecule gave an IC50 of 400 nM.
For `O=C(NCc1ccccn1)Nc1nc2cc(OS(=O)(=O)c3ccc(NC4CCCC4)cc3)ccc2[nH]1` [Example 50, 4-Cyclopentylamino-benzenesulfonic acid 2-(3-pyridin-2-ylmethyl-ureido)-1H-benzoimidazol-5-yl ester], the IC50 in assay [1] was 300 nM; in assay [2], 40 nM.
The matching figures for `O=C(Nc1nc2cc(OS(=O)(=O)c3ccc(NC4CCCC4)cc3)ccc2[nH]1)NC1CCC1` [Example 51, 4-Cyclopentylamino-benzenesulfonic acid 2-(3-cyclobutyl-ureido)-1H-benzoimidazol-5-yl ester]: 800 nM and 140 nM.
The matching figures for `O=C(NCc1ccncc1)Nc1nc2cc(OS(=O)(=O)c3ccc(NC4CCCC4)cc3)ccc2[nH]1` [Example 52, 4-Cyclopentylamino-benzenesulfonic acid 2-(3-pyridin-4-ylmethyl-ureido)-1H-benzoimidazol-5-yl ester]: 1000 nM and 80 nM.
Molecule `CC(C)(C)NC(=O)Nc1nc2cc(OS(=O)(=O)c3ccc(NC4CCCC4)cc3)ccc2[nH]1` [Example 53, 4-Cyclopentylamino-benzenesulfonic acid 2-(3-tert-butyl-ureido)-1H-benzoimidazol-5-yl ester] showed an inhibition at 10 µM in assay [1] of 83%. Further, inhibition in assay [2] was half-maximal at 800 nM (IC50).
Consider `CNC(=O)Nc1nc2cc(OS(=O)(=O)c3ccc(NCC4CCCO4)cc3)ccc2[nH]1` (stereo not shown) [Example 54, 4-[(Tetrahydro-furan-2-ylmethyl)-amino]-benzenesulfonic acid 2-(3-methyl-ureido)-1H-benzoimidazol-5-yl ester], for which the results for the IC50 in assay [1] and in assay [2] were 500 nM and 5 nM, respectively.
As to `O=C(Nc1ccccc1)Nc1nc2cc(OS(=O)(=O)c3ccc(-n4ccnc4)cc3)ccc2[nH]1` [Example 57-a, 4-Imidazol-1-yl-benzenesulfonic acid 2-(3-phenyl-ureido)-1H-benzoimidazol-5-yl ester], the IC50 in assay [1] came to 1000 nM; in assay [2] it was 240 nM.
Consider `O=C(Nc1nc2cc(OS(=O)(=O)c3ccc(-n4ccnc4)cc3)ccc2[nH]1)NC1CCCCC1` [Example 57-b, 4-Imidazol-1-yl-benzenesulfonic acid 2-(3-cyclohexyl-ureido)-1H-benzoimidazol-5-yl ester], for which, in assay [1], the inhibition at 10 µM came out at 51%. For the same molecule, in assay [2], the IC50 amounted to 1900 nM.
In assay [1], `O=C(Nc1nc2cc(OS(=O)(=O)c3ccc(-n4ccnc4)cc3)ccc2[nH]1)NC1CCCC1` [Example 57-c, 4-Imidazol-1-yl-benzenesulfonic acid 2-(3-cyclopentyl-ureido)-1H-benzoimidazol-5-yl ester] yielded an inhibition at 10 µM of 60%. In addition, the IC50 in assay [2] is 600 nM.
On the same counts, the results for `O=C(Nc1cccc(F)c1)Nc1nc2cc(OS(=O)(=O)c3ccc(-n4ccnc4)cc3)ccc2[nH]1` [Example 57-d, 4-Imidazol-1-yl-benzenesulfonic acid 2-[3-(3-fluoro-phenyl)-ureido]-1H-benzoimidazol-5-yl ester] are 70% and 500 nM.
As to `O=C(NCCO)Nc1nc2cc(OS(=O)(=O)c3ccc(-n4ccnc4)cc3)ccc2[nH]1` [Example 57-e, 4-Imidazol-1-yl-benzenesulfonic acid 2-[3-(2-hydroxy-ethyl)-ureido]-1H-benzoimidazol-5-yl ester], the inhibition at 10 µM in assay [1] is 90%. In addition, the IC50 in assay [2] came out at 300 nM.
The matching figures for `O=C(Nc1ccc(F)cc1)Nc1nc2cc(OS(=O)(=O)c3ccc(-n4ccnc4)cc3)ccc2[nH]1` [Example 57-f, 4-Imidazol-1-yl-benzenesulfonic acid 2-[3-(4-fluoro-phenyl)-ureido]-1H-benzoimidazol-5-yl ester]: 88% and 500 nM.
On the same counts, the results for `O=C(NCc1ccccc1Cl)Nc1nc2cc(OS(=O)(=O)c3ccc(-n4ccnc4)cc3)ccc2[nH]1` [Example 57-g, 4-Imidazol-1-yl-benzenesulfonic acid 2-[3-(2-chloro-benzyl)-ureido]-1H-benzoimidazol-5-yl ester] are 52% and 600 nM.
In the case of `O=C(NCc1ccccc1F)Nc1nc2cc(OS(=O)(=O)c3ccc(-n4ccnc4)cc3)ccc2[nH]1` [Example 57-h, 4-Imidazol-1-yl-benzenesulfonic acid 2-[3-(2-fluoro-benzyl)-ureido]-1H-benzoimidazol-5-yl ester], the IC50 in assay [1] came to 4400 nM; in assay [2], 100 nM.
Take `O=C(Nc1nc2cc(OS(=O)(=O)c3ccc(-n4ccnc4)cc3)ccc2[nH]1)N1CCC1` [Example 57-i, 4-Imidazol-1-yl-benzenesulfonic acid 2-[(azetidine-1-carbonyl)-amino]-1H-benzoimidazol-5-yl ester]: 10 µM produced 27% inhibition in assay [1]. In assay [2], this molecule yielded an IC50 of 5200 nM.
On the same counts, the results for `CN1CCN(CCCNC(=O)Nc2nc3cc(OS(=O)(=O)c4ccc(-n5ccnc5)cc4)ccc3[nH]2)CC1` [Example 57-k, 4-Imidazol-1-yl-benzenesulfonic acid 2-{3-[3-(4-methyl-piperazin-1-yl)-propyl]-ureido}-1H-benzoimidazol-5-yl ester] are 49% and 600 nM.
`O=C(NCc1ccccc1)Nc1nc2cc(OS(=O)(=O)c3ccc(-n4ccnc4)cc3)ccc2[nH]1` [Example 57-l, 4-Imidazol-1-yl-benzenesulfonic acid 2-(3-benzyl-ureido)-1H-benzoimidazol-5-yl ester]: the IC50 was found to be 1000 nM in assay [1] and 70 nM in assay [2].
Take `O=C(Nc1ccccc1)Nc1nc2cc(OS(=O)(=O)c3ccc(NC4CCCC4)cc3)ccc2[nH]1` [Example 58-a, 4-Cyclopentylamino-benzenesulfonic acid 2-(3-phenyl-ureido)-1H-benzoimidazol-5-yl ester]: in assay [1], at 10 µM the inhibition was 96%. In addition, in assay [2], the IC50 was 380 nM.
For `O=C(NCCNCCO)Nc1nc2cc(OS(=O)(=O)c3ccc(NC4CCCC4)cc3)ccc2[nH]1` [Example 58-aa, 4-Cyclopentylamino-benzenesulfonic acid 2-{3-[2-(2-hydroxy-ethylamino)-ethyl]-ureido}-1H-benzoimidazol-5-yl ester], the IC50 in assay [1] came out at 340 nM; in assay [2], 100 nM.
Regarding `O=C(NCCCCO)Nc1nc2cc(OS(=O)(=O)c3ccc(NC4CCCC4)cc3)ccc2[nH]1` [Example 58-ab, 4-Cyclopentylamino-benzenesulfonic acid 2-[3-(4-hydroxy-butyl)-ureido]-1H-benzoimidazol-5-yl ester], the IC50 in assay [1] worked out at 220 nM; in assay [2], 2 nM.

The values above are taken from patent publication US20050014811A1, “Substituted benzimidazole compounds and their use for the treatment of cancer” (Aventis Pharma S.A., priority 2001, published 2005).
